From patent US20100104552A1, “ANTIBIOTIC SYNERGISM” (priority 2008, published 2010)

Experiments:
Format in all cases: cell-based
[1] = test system: bacterial membrane; test: K+-efflux of exposed bacteria; details: bacteria exposed to the defensin
[2] = test system: bacterial membrane; test: Trans-membrane potential of exposed bacteria; details: bacteria exposed to the defensin
[3] = test system: bacterial cells; test: Traditional incorporation studies
[4] = test system: vancomycin-resistant Staphylococcus aureus (VRSA); test: Cross-resistance with vancomycin resistance

Substance	K+-efflux [1]	trans-membrane potential [2]	incorporation of cell wall precursors [3]	cross-resistance [4]
Plectasin	No K^+-efflux could be detected	remained intact	severely affected	No cross-resistance
GFGCNGPWNEDDLRCHNHCKSIKGYKGGYCAKGGFVCKCY [Defensin2114]	No K^+-efflux could be detected	remained intact	severely affected	No cross-resistance
